Tests used:
galium = assay: Test C postemergence; type: in vivo, Galium aparine; details: 10 days, 0 to 100 scale (0 no effect, 100 complete control)
Method in brief: (§1)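 Greenhouse herbicide screen, 10-day duration. Test chemicals in solvent/surfactant blend were sprayed onto soil at sowing (pre) or onto 2–10 cm seedlings at one to two leaves (post); injury scored visually against controls, 0 no effect to 100 complete control.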

ragweed [1] = assay: Test C postemergence; type: in vivo, Ambrosia artemisiifolia; details: 10 days, 0 to 100 scale (0 no effect, 100 complete control)
Method in brief: as §1

horseweed = assay: Test C postemergence; type: in vivo, Erigeron canadensis; details: 10 days, 0 to 100 scale (0 no effect, 100 complete control)
Method in brief: as §1

corn [2] = assay: Test C postemergence; type: in vivo, Zea mays; details: 10 days, 0 to 100 scale (0 no effect, 100 complete control)
Method in brief: as §1

wheat [3] = assay: Test C postemergence; type: in vivo, Triticum aestivum; details: 10 days, 0 to 100 scale (0 no effect, 100 complete control)
Method in brief: as §1

sedge, umbrella = assay: Test D flooded paddy test; type: in vivo, Cyperus difformis; details: 250 g ai/ha, applied to paddy water, visual rating after 13 to 14 days, scale 0 to 100 (0 no effect, 100 complete control)
Method in brief: (§2)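 Plants at the 2-leaf stage were grown in pots flooded to 3 cm, and compound was applied directly into the paddy water, with depth kept throughout. After 13–14 days in a greenhouse, injury was rated visually against untreated controls on a 0–100 scale (100 = complete control); a dash means not tested.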

rice = assay: Test D flooded paddy test; type: in vivo, Oryza sativa; details: 250 g ai/ha, applied to paddy water, visual rating after 13 to 14 days, scale 0 to 100 (0 no effect, 100 complete control)
Method in brief: as §2

ryegrass, Italian [4] = assay: Test C postemergence; type: in vivo, Lolium multiflorum; details: 10 days, 0 to 100 scale (0 no effect, 100 complete control)
Method in brief: as §1

pigweed, palmer [5] = assay: Test C postemergence; type: in vivo, Amaranthus palmeri; details: 10 days, 0 to 100 scale (0 no effect, 100 complete control)
Method in brief: as §1

kochia [6] = assay: Test C postemergence; type: in vivo, Bassia scoparia; details: 10 days, 0 to 100 scale (0 no effect, 100 complete control)
Method in brief: as §1

corn [7] = assay: Test C preemergence; type: in vivo, Zea mays
Method in brief: as §1

barnyardgrass [8] = assay: Test D flooded paddy test; type: in vivo, Echinochloa crus-galli; details: 250 g ai/ha, applied to paddy water, visual rating after 13 to 14 days, scale 0 to 100 (0 no effect, 100 complete control)
Method in brief: as §2

kochia [9] = assay: Test C preemergence; type: in vivo, Bassia scoparia
Method in brief: as §1

pigweed, palmer [10] = assay: Test C preemergence; type: in vivo, Amaranthus palmeri
Method in brief: as §1

green foxtail [11] = assay: Test C preemergence; type: in vivo, Setaria viridis
Method in brief: as §1

ragweed [12] = assay: Test C preemergence; type: in vivo, Ambrosia artemisiifolia
Method in brief: as §1

wheat [13] = assay: Test C preemergence; type: in vivo, Triticum aestivum
Method in brief: as §1

soybean [14] = assay: Test C preemergence; type: in vivo, Glycine max
Method in brief: as §1

green foxtail [15] = assay: Test C postemergence; type: in vivo, Setaria viridis; details: 10 days, 0 to 100 scale (0 no effect, 100 complete control)
Method in brief: as §1

ryegrass, Italian [16] = assay: Test C preemergence; type: in vivo, Lolium multiflorum
Method in brief: as §1

oat, wild [17] = assay: Test C preemergence; type: in vivo, Avena fatua
Method in brief: as §1

ducksalad = assay: Test D flooded paddy test; type: in vivo, Heteranthera limosa; details: 250 g ai/ha, applied to paddy water, visual rating after 13 to 14 days, scale 0 to 100 (0 no effect, 100 complete control)
Method in brief: as §2

oat, wild [18] = assay: Test C postemergence; type: in vivo, Avena fatua; details: 10 days, 0 to 100 scale (0 no effect, 100 complete control)
Method in brief: as §1

barnyardgrass [19] = assay: Test C postemergence; type: in vivo, Echinochloa crusgalli; details: 10 days, 0 to 100 scale (0 no effect, 100 complete control)
Method in brief: as §1

blackgrass [20] = assay: Test C postemergence; type: in vivo, Alopecurus myosuroides; details: 10 days, 0 to 100 scale (0 no effect, 100 complete control)
Method in brief: as §1

soybean [21] = assay: Test C postemergence; type: in vivo, Glycine max; details: 10 days, 0 to 100 scale (0 no effect, 100 complete control)
Method in brief: as §1

blackgrass [22] = assay: Test C preemergence; type: in vivo, Alopecurus myosuroides
Method in brief: as §1

barnyardgrass [23] = assay: Test C preemergence; type: in vivo, Echinochloa crusgalli
Method in brief: as §1

[24] = 500 g ai/ha, preemergence, 0 to 100 scale (0 no effect, 100 complete control)
[25] = Preemergence, 125 g ai/ha, 0 to 100 scale, 0 no effect, 100 complete control

CNc1ncn(-c2cccc(C(=O)N3C[C@H](C)Oc4c(C)cccc43)c2)n1 [Compound 337]
100: Pigweed, Palmer plant response rating (pigweed, palmer [10]; [24]) | Foxtail, Green plant response rating (green foxtail [11]; [24]) | Plant response rating, Soybean (soybean [21]; 500 g ai/ha, postemergence)
90: Plant response rating, Galium (galium; 500 g ai/ha, postemergence) | Plant response rating, Foxtail, Green (green foxtail [11]; [25]) | Ryegrass, Italian plant response rating (ryegrass, Italian [16]; [24]) | Plant response rating, Blackgrass (blackgrass [20]; 500 g ai/ha, postemergence) | Plant response rating, Soybean (soybean [21]; Postemergence, 125 g ai/ha) | Barnyardgrass plant response rating (barnyardgrass [23]; [24])
60: Plant response rating, Ragweed (ragweed [1]; 500 g ai/ha, postemergence) | Plant response rating, Corn (corn [2]; 500 g ai/ha, postemergence) | Plant response rating, Barnyardgrass (barnyardgrass [19]; 500 g ai/ha, postemergence)
10: Plant response rating, Corn (corn [2]; Postemergence, 125 g ai/ha) | Plant response rating, Wheat (wheat [3]; Postemergence, 125 g ai/ha) | Wheat plant response rating (wheat [13]; [24]) | Plant response rating, Oat, Wild (oat, wild [18]; Postemergence, 125 g ai/ha) | Plant response rating, Barnyardgrass (barnyardgrass [19]; Postemergence, 125 g ai/ha)
80: Kochia plant response rating (kochia [9]; [24])
0: Plant response rating, Horseweed (horseweed; Postemergence, 125 g ai/ha) | Plant response rating, Sedge, Umbrella (Flood) (sedge, umbrella) | Plant response rating, Rice (Flood) (rice) | Plant response rating, Corn (corn [7]; [25]) | Plant response rating, Barnyardgrass (Flood) (barnyardgrass [8]) | Plant response rating, Kochia (kochia [9]; [25]) | Plant response rating, Pigweed, Palmer (pigweed, palmer [10]; [25]) | Plant response rating, Wheat (wheat [13]; [25]) | Plant response rating, Soybean (soybean [14]; [25]) | Plant response rating, Oat, Wild (oat, wild [17]; [25]) | Plant response rating, Ducksalad (Flood) (ducksalad)
40: Plant response rating, Galium (galium; Postemergence, 125 g ai/ha) | Corn plant response rating (corn [7]; [24]) | Soybean plant response rating (soybean [14]; [24]) | Plant response rating, Foxtail, Green (green foxtail [15]; 500 g ai/ha, postemergence) | Plant response rating, Blackgrass (blackgrass [20]; Postemergence, 125 g ai/ha)
50: Plant response rating, Kochia (kochia [6]; Postemergence, 125 g ai/ha) | Ragweed plant response rating (ragweed [12]; [24]) | Plant response rating, Ryegrass, Italian (ryegrass, Italian [16]; [25]) | Blackgrass plant response rating (blackgrass [22]; [24])
70: Plant response rating, Ryegrass, Italian (ryegrass, Italian [4]; 500 g ai/ha, postemergence) | Plant response rating, Pigweed, Palmer (pigweed, palmer [5]; 500 g ai/ha, postemergence) | Plant response rating, Kochia (kochia [6]; 500 g ai/ha, postemergence)
30: Plant response rating, Ragweed (ragweed [12]; [25]) | Plant response rating, Foxtail, Green (green foxtail [15]; Postemergence, 125 g ai/ha) | Plant response rating, Oat, Wild (oat, wild [18]; 500 g ai/ha, postemergence) | Plant response rating, Barnyardgrass (barnyardgrass [23]; [25])
20: Plant response rating, Ragweed (ragweed [1]; Postemergence, 125 g ai/ha) | Plant response rating, Horseweed (horseweed; 500 g ai/ha, postemergence) | Plant response rating, Wheat (wheat [3]; 500 g ai/ha, postemergence) | Plant response rating, Ryegrass, Italian (ryegrass, Italian [4]; Postemergence, 125 g ai/ha) | Plant response rating, Pigweed, Palmer (pigweed, palmer [5]; Postemergence, 125 g ai/ha) | Oat, Wild plant response rating (oat, wild [17]; [24]) | Plant response rating, Blackgrass (blackgrass [22]; [25])

Source: patent publication US20260262643A1, “HERBICIDAL BENZOXAZINES” (FMC CORPORATION, priority 2022, published 2026)
